The text below walks through data of patent US12350244B2, “MEK-inhibitor for the treatment of viral and bacterial infections” (priority 2019, dated 2025).

The test system of series [1] is S. aureus 6850. As to the kind of experiment: Over-night treatment, bacterial titers (CFU/ml), strain 6850. The format is cell-based, Staphylococcus aureus. The following applies: for effect on bacterial titers: over-night treatment, concentrations as indicated in figures.
The test system of series [2] is MRSA strain USA300. Put plainly: Over-night treatment, bacterial titers (CFU/ml), MRSA USA300. It is filed as cell-based, Staphylococcus aureus. The following applies: for effect on bacterial titers: over-night treatment, concentrations as indicated in figures.
Series [3] deals with S. aureus. Put plainly: Resistance development under constant treatment for 17 days. The format is cell-based, Staphylococcus aureus. The following applies: 24 h cycles repeated for 17 days.
Series [4] relates to influenza virus. The conditions noted are these: mouse model, cited from earlier work; for effect of treatment started late post infection: 48 h or more post infection, previous studies.
Series [5] concerns H1N1pdm09. Put plainly: Lung virus titration assay in mice (Example 11). The format is in vivo, C57BL/6 mice. The conditions noted are these: for virus titer in the lung (control set to 100%): 24 h after infection. As for the experimental part:
(A) After H1N1pdm09 infection female C57BL/6 mice were treated with either 2.8, 8.4 or 25 mg/kg PD-0184264 (left side) or with 25, 75 or 150 mg/Kg […] (left side) the oral route. 24 hrs after infection the animals were killed and lung was taken to prepare a 10% suspension. Virus titer was determined using the standard method. Virus titer of mice treated with the two MEK-inhibitors were compared to virus titer of mice treated with solvent (Control) alone. Virus tier in the lungs of control mice was set to 100% (black bar). Graphpad Prism 7 software was used to illustrate both figures.
For oral application of 25 mg/kg, 2.5 mg of PD-0184264 were dissolved in 50 μl DMSO (Sigma-Aldrich, Germany) and further diluted with 0.15 ml Cremophor EL (Merck-Millipore, Germany) and 0.8 ml PBS (Gibco, Germany). For application of 8.4 mg/kg and 2.8 mg/kg, 0.84 mg or 0.28 mg PD-0184264 were dissolved with 50 μl DMSO (Sigma-Aldrich, Germany) and further diluted with 0.15 ml Cremophor EL/0.8 ml PBS.
Eight week old female C57Bl/6 mice (Charles River Laboratories, Germany) with a body weight of 21.0-24.0 g at administration were used for antiviral studies. The animals were normally fed. Drinking water was available ad libitum.
Drugs were administrated using a single dosing on test day 1 by oral gavage. The application speed was 15 s per dose with an administration volume of 200 μl.
Mice were sacrificed 24 h post infection and lungs were weighed, transferred into a Lysing Matrix D tube (MP Bio) and BSS was applied in an amount of the 10-fold volume of the lung. Organs were shredded using the FastPrep FP 120 (Savant). To remove the cell debris the homogenates were centrifuged for 15 min at 2000 rpm and the supernatant collected. The determination of virus titer in homogenates was performed using the AVICEL® plaque assay as described previously (Haasbach et al. 2011, Mastrosovich et al. 2006).

Series [6] has as its system Streptococcus pneumoniae strains TIGR4 (serotype 4) and D39 wt (serotype 2). As to the kind of experiment: Growth of Streptococcus pneumoniae (OD600, CFU/ml). The format is cell-based. The following applies: over-night treatment, different concentrations. As for the experimental part:
Additionally, these kinases share high homology to cellular MAP kinases (e.g. ERK, JNK, p38). […] Thus, the impact of PD-0184264 on different strains of Streptococci pneumonia was analyzed. Streptococcus pneumoniae strains can be divided into different serotypes, which differ in their virulence and overall pathogenicity. To test for a serotype- or strain-independent effect, we used the encapsulated strains D39 and TIGR4, which are both virulent, but belong to different serotypes. […] Then, the OD600 was measured again (Results shown in FIG. 11A) and dilution series were objected to BHI agar plates to determine bacterial titers (Results shown in FIG. 11B).

For series [7], the system named is A549 cells. Put plainly: WST-assay. It is filed as cell-based, human. The conditions noted are these: 24 h, FIG. 17C. As for the experimental part:
A549 cells were seeded in a 96-well flat-bottom tissue plate (Greiner, Germany) and were grown overnight. […] Thereafter, 10 μl WST-1 reagent (Roche, Germany) was added to the culture medium and incubated for four hours. During this time, the stable tetrazolium salt WST-1 was cleaved to a soluble formazan by metabolically active cells in the culture. After this incubation period, the formazan dye formed was quantitated with ELISA reader at 405 nm. The measured absorbance directly correlated to the number of viable cells.

Series [8] relates to strain A/Regensburg/D6/2009 Influenza H1N1pdm09. As to the kind of experiment: Survival of infected mice with late start of treatment. It is filed as in vivo, C57BL/6 mice. The conditions noted are these: 25 mg/kg oral BID.
For series [9], the system named is influenza virus strain A/Regensburg/D6/2009, (RB1, H1N1pdm09). Put plainly: Lung virus titer in influenza-infected mice (Example 1). It is filed as in vivo, C57BL/6 mice. As for the experimental part: 8 weeks old C57BL/6 mice (five per group) were infected with 1.5×10^5 PFU (5×MLD50) of the influenza virus strain A/Regensburg/D6/2009, (RB1, H1N1pdm09). […] All animals received a volume of 200 μl per os. Mice were sacrificed 24 h post infection and lungs were weighed, transferred into a Lysing Matrix D tube (MP Bio) and BSS (buffered salt solution) in an amount of the 10-fold volume of the lung was applied to the samples. Organs were shredded using the FastPrep FP 120 (Savant). To remove the cell debris the homogenates were centrifuged for 15 min at 2000 rpm and the supernatant collected. The determination of virus titer in homogenates was performed using the AVICEL® plaque assay. Results are presented in FIG. 1 as virus titer (log 10) pfu/ml (left) or % virus titer (right). Virus titer was determined by two investigators independently. Mean values from all titrations were presented.

Series [10] has as its system S. aureus strain 6850. Put plainly: Bacterial growth under heat stress, strain 6850. The format is cell-based, Staphylococcus aureus. The conditions noted are these: 20 μM over night, then 42° C. for 6 h. As for the experimental part:
(§1) As the kinase is known to play an important role in bacterial stress resistance, bacterial growth under heat stress was monitored after treatment of the bacteria with the inhibitor PD-0184264. S. aureus strain 6850 and MRSA strain USA300 were treated over night with either solvent or 20 μM of the PD-0184264. The next day subcultures with the same amount of bacteria were prepared (confirmed by OD600 and plating on BHI agar) and further incubated at 42° C. for 6 h. Bacterial titers were then calculated via plating of serial dilutions on BHI agar plates. […] This is both observed for the methicillin-sensitive strain 6850 (black bars) as well as for the MRSA strain USA300 (grey bars). Impaired stress tolerance in the presence of the inhibitor is another indication that PD-0184264 directly targets the kinase PknB, which is an important mediator of stress resistance. In summary, the data provide strong circumstantial evidence, that PD-0184264 elicits its antibacterial action by inhibition of the bacterial kinase PknB.

Series [11] deals with MRSA strain USA300. As to the kind of experiment: Bacterial growth under heat stress, MRSA USA300. It is filed as cell-based, Staphylococcus aureus. The following applies: 20 μM over night, then 42° C. for 6 h. As for the experimental part:
as §1

Series [12] relates to S. aureus 6850. As to the kind of experiment: Time-of-addition assay, bacterial growth. The format is cell-based, Staphylococcus aureus.
For series [13], the system named is A549 cells infected with IAV (H1N1) and/or S. aureus 6850. The format is cell-based.
For series [14], the system named is A549 cells. Put plainly: A549 cell viability (trypan blue) and LDH release. The following applies: 1, 5, 10, 20, 50 or 100 μM, 24 or 48 hours. It is filed as cell-based, human. As for the experimental part:
To rule out that the reduction in viral and intracellular bacterial replication was a result of a cytotoxic effect of PD-0184264 on A549 cells, cell viability in presence of increasing concentrations was monitored for 24 and 48 hours. Additionally, a LDH-Assay was performed to determine membrane rupture due to inhibitor treatment. […] A549 cells were treated for 24 (as shown in FIGS. 15A and C) or 48 (as shown in FIGS. 15B and D) hours with increasing concentrations of PD-0184264 (1, 5, 10, 20, 50 or 100 μM). After the incubation times, supernatants were taken for measurement of LDH release (shown in FIGS. 15C, D) using the CytoSelect LDH Cytotoxicity Assay Kit according to the manufacturer's instructions. Additionally, viable cells were counted by staining with trypan blue. Cell viability was normalized to DMSO-treated cells and is shown as % viability. […] Statistical significance was calculated by one-way ANOVA followed by Dunnett's multiple comparisons test (* p<0.05; ** p<0.01; 27 *** p<0.001).
A general note: LDH in the medium is a marker of cell lysis.

The CC50 is the concentration at which the toxic effect on the cells reaches its halfway point. Low readings indicate greater toxicity to the cells, high ones lower toxicity to the cells.

Read-outs that look alike come from different tables or passages of the source.

As to Gentamicin, the bacterial titers result in series [1] (0.5 μg/ml, over night) is “no reduction in bacterial titers”; in [2] (0.5 μg/ml, over night), “no reduction in bacterial titers”. The resistance development entry in series [3] was “resistance development occurred during the first week of treatment”.

For the compound `CCOC(=O)C1=C[C@@H](OC(CC)CC)[C@H](NC(C)=O)[C@@H](N)C1` [oseltamivir], the “effect of treatment started late post infection” value is “no longer effective” in series [4] and “no effect” in series [4] (listed as Tamiflu).

For the compound `O=C(NOCC1CC1)c1ccc(F)c(F)c1Nc1ccc(I)cc1Cl` [CI-1040, 2-(2-chloro-4-iodophenylamino)-N-(cyclopropylmethoxy)-3,4-difluoro benzamide, reference compound], the “effect on bacterial titers” value in [1] was “effective”. Also, the “doses showing any effect in reduction of virus titer” value in series [5] (oral, 25, 75 or 150 mg/kg tested) is no less than 75 mg/kg. Further, the “treatment window post infection” value in [4] (Haasbach et al. 2017 and further experiments of the applicant) is reported as “at least 48 h”.

On to `CC[C@H]1OC(=O)[C@H](C)[C@@H](O[C@H]2C[C@@](C)(OC)[C@@H](O)[C@H](C)O2)[C@H](C)[C@@H](O[C@@H]2O[C@H](C)C[C@H](N(C)C)[C@H]2O)[C@](C)(O)C[C@@H](C)C(=O)[C@H](C)[C@@H](O)[C@]1(C)O` [Erythromycin], for which the resistance development entry in series [3] is “readily develop resistances”.

Consider `N#CC(=C(/N)Sc1ccccc1N)/C(C#N)=C(\N)Sc1ccccc1N` [U0126], for which the “effect on bacterial titers” value in series [1] and in series [2] was “minor reduction in bacterial titers” each time.

In the case of `O=C(O)c1ccc(F)c(F)c1Nc1ccc(I)cc1Cl` [PD-0184264, 2-(2-chloro-4-iodophenylamino)-N-3,4-difluoro benzoic acid], the “sensitivity of both serotypes (OD600, bacterial titers)” value in series [6] was “sensitive”. Besides, the CC50 in [7] was greater than 1580 µM. For the same compound, the bacterial growth entry in series [1] (10 μM, FIG. 4 (strains 6850 and USA300)) is “significant reduction of growth”. For the same compound, the “effect on bacterial titers” value in [1] and in series [2] was “very strong reduction in bacterial load” throughout. For the same compound, the “mice protected (survival)” value is recorded as “six out of eight” in series [8] (treatment started 24 hours after infection), “five out of eight” in series [8] (treatment started 48 hours after infection) and “two out of eight” in series [8] (treatment started 72 hours after infection). The “virus titer in the lung, effect compared with CI-1040” value in series [9] (25 mg/kg PD-0184264 per os in an 8 h interval, 24 h post infection, FIG. 1) is listed as “same effect as 150 mg/kg CI-1040”. Further, in series [9] (25 and 75 mg/kg per os), the “efficacy in vivo by oral administration” value is on record as “effective”. The resistance development entry in series [3] is on record as “did not induce resistance”. In addition, the “bacterial growth under heat stress” value in series [10] and in [11] was “strongly impaired” each time. In [12] (0, 3 h and 6 h post inoculation, versus U0126 and gentamicin 0.5 or 2 μg/ml), the “inhibition of bacterial growth compared with all other compounds” value is reported as “strongest inhibition of bacterial growth”. In addition, the “mode of antibacterial action” value in series [12] (after medium exchange and incubation without substances) was “bacteriostatic rather than a bactericidal action”. Moreover, in [13] (co-infection, FIG. 5), the “concentration at which reduction of the cytopathic effect is already shown” value was 15 µM. For the same compound, in series [13] (increasing concentrations, 24 h, IAV H1N1 MOI 0.001 and S. aureus 6850 MOI 0.1), the “cytopathic effect (CPE), cell monolayer” value is “reversed in a concentration dependent manner”. Besides, the “virus titer in the lung (control set to 100%)” value is reported as “approx. 70%” in series [5] (2.8 mg/kg oral), “approx. 20%” in series [5] (8.4 mg/kg oral) and “approx. 10%” in [5] (25 mg/kg oral). Further, in series [14], the “cell toxicity (viability, LDH release)” value is recorded as “does not induce cell toxicity”.
